Results as given in patent EP2012793B1, “USE OF A TRICYCLIC COMPOUND FOR PREPARING A MEDICAMENT FOR TREATING SKELETAL MUSCLE DEGENERATION OF GENETIC ORIGIN” (Association Française contre les Myopathies, priority 2006, dated 2007).
Structures can show the parent of a compound that is named as a salt.

Legend:
[1] = system: souche de nématode dépourvue de dystrophine; assay: Test on dystrophin-deficient nematode strain (model of degenerative myopathy): paralysis phenotype and cytological count of degenerating muscle cells; format: in vivo, Caenorhabditis elegans; conditions: for Diminution de la dégénérescence en %: untreated = 0; for Pourcentage d'animaux paralysés à J7: untreated = 100
Experimental: Les composés ont été testés sur une souche de nématode dépourvue de dystrophine (Gieseler et al., Current Biology, 2000, vol. 10, p1092-1097) et (Ségalat, Neuromuscular Disorders, 2002, Suppl: S105-9). Cette souche est utilisée comme modèle de myopathie dégénérative. Dans cette souche, jusqu'à 30% des cellules musculaires servant à la locomotion (muscles longitudinaux) dégénèrent à l'état adulte (7 jours à 15°C), ce qui se traduit par une paralysie progressive des animaux.
Les composés sont administrés par mélange avec la gélose sur laquelle sont cultivés les animaux. Ils pénètrent par diffusion à travers la cuticule des animaux.
L'effet des composés sur la dégénérescence musculaire est évalué par 1) l'observation du phénotype des animaux (paralysie), et 2) par l'examen cytologique de la. dégénérescence musculaire au moyen de marqueurs musculaires : rodamine-phalloidine et anticorps anti-myosine. Cet examen permet de compter le nombre de cellules musculaires en dégénérescence ou mortes (Gieseler et al. , 2000, supra).

[2] = system: souris mdx (génotype C57/BL6 mdx5cv); assay: mdx mouse, histological tests (fibre size dispersion, diaphragm degeneration/necrosis, centronucleated fibres); format: in vivo
Source text: (§1) Les tests effectués chez la souris sont de plusieurs types : histologiques, fonctionnels sur l'animal entier, et fonctionnels sur muscles disséqués. Les tests sont effectués sur la souris mdx (génotype C57/BL6 mdx5cv), modèle murin de myopathie dégénérative. Ces tests sont notamment détaillés dans les publications suivantes auxquelles on pourra se référer : • De Luca A, et al. Am. J. Pathol. 2005; 166(2), 477-89. • Divet A, etal. Pflugers Arch. 2002 Aug; 444(5), 634-43. Epub 2002 Jul 10. • Rafael JA, et al. Mamm Genome. 2000 Sep; 11(9), 725-8.
(§2) Les composés sont administrés oralement aux souris dans leur nourriture. Les souris sont traitées de l'âge de 2 semaines à 6 semaines. Elles sont testées à 6 semaines.

[3] = system: souris mdx (génotype C57/BL6 mdx5cv); conditions: treated from 2 to 6 weeks of age
Source text: as §1, §2

[4] = system: protéolyse du muscle de C. elegans; assay: C. elegans muscle proteolysis model representative of cachexia (protocol of Zdinak et al.); format: in vivo; conditions: remaining proteolysis relative to control; strongly reduced
[5] = concentration efficace 0,1 mg/ml in culture agar
[6] = 0,1 mg/ml in culture agar (0,2-0,3 mM), after 7 days of culture at 15°C

Q: With `CC(CN(C)C)CN1c2ccccc2Sc2ccccc21` (stereo not shown) [Trimeprazine, triméprazine] as the compound, how does the “Diminution de la dégénérescence en %” value [1, 5] read?
A: 65%

Q: `NCCc1c[nH]c2ccc(O)cc12` [sérotonine] was tested. Which dégénérescence musculaire ([1]; result in words, concentration not given) did it give?
A: diminue également la dégénérescence musculaire

Q: `CC(CN(C)C)CN1c2ccccc2CCc2ccccc21` (stereo not shown) [Trimipramine maleate, trimipramine] was tested. Which nécrose du diaphragme ([2]; 15 mg/kg/jour, test of Raymackers et al., p<5%) did it give?
A: réduit la nécrose du diaphragme

Q: And the “nombre de fibres centronucléées” value ([2]; 15 mg/kg/jour, test of Shavlakadze et al., p<0,1%)?
A: réduit

Q: How did the “Diminution de la dégénérescence en %” value ([1]; concentration efficace 0,02 mg/ml in culture agar) turn out when `CN(C)CC/C=C1/c2ccccc2Sc2ccc(Cl)cc21` [Chloroprothixene, chlorprothixene] was run?
A: 58%

Q: How did the “Diminution de la dégénérescence en %” value [1, 5] turn out when `COc1ccc2c(c1)N(C[C@H](C)CN(C)C)c1ccccc1S2` [Methotrimeprazine, méthotriméprazine] was run?
A: 70%

Q: How did the “Diminution de la dégénérescence en %” value ([1]; concentration efficace 0,05 mg/ml in culture agar) turn out when `CN(C)CCC=C1c2ccccc2C=Cc2ccccc21` [Cyclobenzaprine, cyclobenzaprine] was run?
A: 63%

Q: And the “Réduction de l'indice de dégénérescence du diaphragme (fibres nécrotiques et fibres centronucléées)” value ([2]; 3mg/jour/kg oral in food, treated from 2 to 6 weeks of age)?
A: 21%

Q: What about the “Réduction de la dispersion de taille des fibres (marqueur de dégénérescence)” value ([2]; 3mg/jour/kg oral in food, treated from 2 to 6 weeks of age, versus untreated animals) of the same compound?
A: 52%

Q: What about the “Augmentation de la force exercée dans test d'agrippement” value ([3]; 3mg/jour/kg oral in food) of the same compound?
A: 24%

Q: And the “Augmentation du score le test d'agrippement” value ([3]; 3mg/jour/kg oral in food)?
A: 40%

Q: How did the “Diminution de la dégénérescence en %” value [1, 6] turn out when `CNCCCN1c2ccccc2CCc2ccccc21` [Desipramine chlorhydrate, désipramine] was run?
A: 58%

Q: And the “Pourcentage d'animaux paralysés à J7” value [1, 6]?
A: 58%

Q: For `CN(C)CCCN1c2ccccc2CCc2ccccc21` [Imipramine chlorhydrate, imipramine], which “Diminution de la dégénérescence en %” value [1, 6] is on record?
A: 37%

Q: What about the “Pourcentage d'animaux paralysés à J7” value [1, 6] of the same compound?
A: 65%

Q: And the protéolyse [4]?
A: 20 % de la protéolyse du témoin

Q: And the “Augmentation de la tension développée par le muscle EDL sur animaux vivants” value ([3]; 40mg/jour/kg oral in food)?
A: 20%

Q: And the “Augmentation du score avec le test d'agrippement” value ([3]; 40mg/jour/kg oral in food)?
A: 48%

Q: And the “Augmentation de la tension maximale développée par le muscle isolé” value ([3]; 40mg/jour/kg oral in food, triton-skinned fibre protocol)?
A: 50%
